Values joined by “and” are separate entries in the source; they are usually repeats but may differ in a detail not shown here. Identical values can stand only once. Like-named read-outs stand apart in the source and are kept apart here.
How the values were obtained:
[1] = tested on: multiple cancer cell lines; experiment: Pro-apoptotic activity in multiple cancer cell lines; format: cell-based
[2] = tested on: P388 murine leukemia cell line; experiment: 72 hour cytotoxicity, ATP-Lite cell viability; format: cell-based; settings: Mus musculus, P388, Lymphoma, read-out: 72 Hour Cytotoxicity (IC50, nM ± SD)
Description: A P388 murine leukemia cell line was obtained from NCI, Frederick, Md. P388 cells were cultured in RPMI-1640 supplemented with 10% fetal bovine serum, 2 mM Glutamax, 1 mM sodium pyruvate, 0.1 mM non-essential amino acids and 10 mM HEPES. Cells were grown at 37° C. in a humidified 5% CO2 atmosphere. Exponentially growing P388 cells were plated at 5,000 cells/well in a 96-well flat-bottomed microtiter plate (Corning, Costar #3595, Lowell, Mass.). Twenty-four hours later, test compound was added to cells at final concentrations of 100 nM, 33.3 nM, 11.1 nM, 3.7 nM, 1.23 nM, 0.4 nM and 0.13 nM. Cellular viability was determined 72 hours later by measuring intracellular ATP with ATP-Lite assay system. The effect of compounds on cell viability was calculated by comparing the ATP levels of cells exposed to test compound with those of cells exposed to DMSO. A semi-log plot of relative ATP levels versus compound concentration was used to calculate the compound concentration required to inhibit growth by 50% (IC50). Data was analyzed by Prism software (GraphPad; San Diego, Calif.) by fitting it to a sigmoidal dose response curve.

[3] = Pharmacokinetic study in mice, plasma; format: in vivo
Description: (§1) Animals were dosed with approximately 2.5 mg/kg i.v. in the tail vein or 5, 10, 30, or 60 mg/kg p.o. in fed and 60 mg/kg p.o. in a fasted state. Blood samples and whole brains were collected from five mice at each of the […] collection time points (approximately 0.05, 0.25, 1.0, 2.0, 4.0, 8.0, 12.0 and 24.0 hours) after administration of the dose. Plasma was collected from blood samples, and whole brain sample were homoginized. Both tissues were analyzed for the concentration of Compound 1. Pharmacokinetic parameters were estimated by non-compartmental analysis using WinNonlin.

[4] = Pharmacokinetic study in mice, brain; format: in vivo
Description: as §1

B16-F0 tumor = experiment: B16-F0 melanoma allograft study in nude mice; format: in vivo; settings: melanoma (B16-F0) allografts in nude mice, oral dosing (50 mg/kg qd×5 or 200 mg/kg qwk×2 p.o.), relative to vehicle
Description: Female Crl:Nu/Nu-nuBR mice (Charles River Labs, Wilmington, Mass.) were implanted subcutaneously with 10^6 B16-F0 cells in the right flank. Animals were housed by groups in Positive Individual Ventilation cages in flat-bottom cages with no more than ten mice per cage. Environmental controls were set to maintain a temperature between 65 and 75° F. with a relative humidity of 30-70% in a 12:12 hour light:dark cycle. Animals were fed and watered ad libitum. Tumors were allowed to grow to approximately 100 mm^3 and then mice were placed into test groups (N=10). Animals were treated with vehicle, 50 mg/kg Compound 1 qd×5 p.o. or 200 mg/kg Compound 1 qwk×2 p.o. The mice were observed daily for mortality and signs of toxicity. Tumor growth was monitored externally using a caliper and volumes calculated using the formula [p/6 (width^2×length)], in which width represents the smaller tumor diameter. Studies were completed when the first animal achieved a tumor volume >1500 mm^3. Statistical analysis of variance with unadjusted pair wise comparison was performed using SAS software (Cary, N.C.).

MCF-7 = experiment: Multidrug resistant cell assay, cytotoxicity; format: cell-based; settings: Homo sapiens, MCF7, 72 h, read-out: Various MDR Cell Line Cytotoxicity IC50
[5] = Swiss Webster, mouse, plasma, iv, 2.5 mg/kg, mice, Not Fasted
[6] = Swiss Webster, mouse, plasma, po, 60 mg/kg, mice, Fasted
[7] = Swiss Webster, mouse, plasma, po, 60 mg/kg, mice, Not Fasted

COc1ccc(N(C)c2nc(CN)nc3ccccc23)cc1 [Compound 1]
pro-apoptotic activity, potency ([1]; multiple cancer types including pancreatic, breast, colorectal, non-small cell lung, melanoma, ovarian cancers and leukemia): potency at low nanomolar concentrations | induction of apoptosis versus ABC transporter expression ([1]; regardless of expression levels of MDR-1 (Pgp-1), MRP-1, BCRP-1): equipotent for induction of apoptosis | IC50 [2]: 6.1 ± 2.2 nM | AUC(0-inf) [3, 5]: 467 ng·h/mL | Cmax [3, 5]: 513 ng/mL and 1.7 µM | Tmax [3, 5]: 0.05 h | half-life ([3]; Swiss Webster, mouse, plasma, iv, 2.5 mg/kg, mice, Not Fasted, IV, 2.5 mg/kg, read-out: Plasma t½ (converted)): 6.2 h | half-life ([3]; Swiss Webster, mouse, plasma, po, 60 mg/kg, 60 mg/kg dose in mice, oral, read-out: half life (t1/2) (converted)): ~10 h | bioavailability ([3]; Swiss Webster, mouse, plasma, po, 60 mg/kg, 60 mg/kg dose in mice, read-out: oral bioavailability): ~100% | AUC(0-inf) [3, 6]: 12900 ng·h/mL | Cmax [3, 6]: 1090 ng/mL and 3.7 µM | Tmax [3, 6]: 1 h | bioavailability ([3]; Swiss Webster, mouse, plasma, po, 60 mg/kg, mice, Fasted, PO, 60 mg/kg, read-out: % F): 115% | half-life ([3]; Swiss Webster, mouse, plasma, po, 60 mg/kg, mice, Fasted, PO, 60 mg/kg, read-out: Plasma t½ (converted)): 18.3 h | AUC(0-inf) [3, 7]: 10700 ng·h/mL | Cmax [3, 7]: 1120 ng/mL and 3.8 µM | Tmax [3, 7]: 0.25 h | bioavailability ([3]; Swiss Webster, mouse, plasma, po, 60 mg/kg, mice, Not Fasted, PO, 60 mg/kg, read-out: % F): 96% | half-life ([3]; Swiss Webster, mouse, plasma, po, 60 mg/kg, mice, Not Fasted, PO, 60 mg/kg, read-out: Plasma t½ (converted)): 10.8 h | clearance ([3]; Swiss Webster, mouse, plasma, mice, Not Fasted, IV, 2.5 mg/kg, read-out: Plasma CL (converted)): 89.3 mL/min/kg | bioavailability after oral dosing ([3]; mice): almost completely bioavailable | oral dose proportionality to plasma Cmax ([3]; mice dosed orally up to at least 60 mg/kg): Dose proportional increases in Cmax | differences in pharmacokinetics between fed and fasted animals ([3]; mice, 60 mg/kg p.o.): No significant differences in pharmacokinetics | Plasma CL ([3]; mice, Fasted, PO, 60 mg/kg): 77.8 mL/min/kg | Plasma V ([3]; mice, Fasted, PO, 60 mg/kg): 123.424 L/kg | Plasma V ([3]; mice, Not Fasted, IV, 2.5 mg/kg): 47.759 L/kg | Plasma CL ([3]; mice, Not Fasted, PO, 60 mg/kg): 93.05 mL/min/kg | Plasma V ([3]; mice, Not Fasted, PO, 60 mg/kg): 86.914 L/kg | Kp ([4]; Swiss Webster, mouse, brain, other: oral or intravenous, after oral or intravenous dosing, read-out: exposure in the brain relative to that in the plasma): ~7 | Tmax ([4]; Swiss Webster, mouse, brain, mice, Not Fasted, PO, 60 mg/kg): 2 h | half-life ([4]; Swiss Webster, mouse, brain, mice, Not Fasted, PO, 60 mg/kg, read-out: Brain t½ (converted)): 9 h | Brain AUC(0-inf) ([4]; mice, Not Fasted, PO, 60 mg/kg): 77290 ng·h/mL | Brain CL ([4]; mice, Not Fasted, PO, 60 mg/kg): 12.9 mL/min/kg | Brain Cmax ([4]; mice, Not Fasted, PO, 60 mg/kg): 6030 ng/mL and 20.4 μM | Brain V ([4]; mice, Not Fasted, PO, 60 mg/kg): 10.109 L/kg | Kp ([4]; mouse, brain, po, Swiss Webster mice, single 60 mg/kg p.o. dose, read-out: Brain concentrations relative to plasma levels (AUC0-∞)): ~7 | inhibition of tumor growth (B16-F0 tumor): Statistically significant (p<0.00005) inhibition of tumor growth | IC50 (MCF-7): 27 nM
